Assay [1] concerns sebum production. To be noted: background statement, cited from earlier work.
The target in assay [2] is T1, stearoyl CoA desaturase (SCD1) (Rattus norvegicus, UniProt P07308).
T1 construct: Rat liver microsomes are allowed to react with stearoyl-coenzyme A labeled with D3; from tissue
T1 sequence (P07308 1-358): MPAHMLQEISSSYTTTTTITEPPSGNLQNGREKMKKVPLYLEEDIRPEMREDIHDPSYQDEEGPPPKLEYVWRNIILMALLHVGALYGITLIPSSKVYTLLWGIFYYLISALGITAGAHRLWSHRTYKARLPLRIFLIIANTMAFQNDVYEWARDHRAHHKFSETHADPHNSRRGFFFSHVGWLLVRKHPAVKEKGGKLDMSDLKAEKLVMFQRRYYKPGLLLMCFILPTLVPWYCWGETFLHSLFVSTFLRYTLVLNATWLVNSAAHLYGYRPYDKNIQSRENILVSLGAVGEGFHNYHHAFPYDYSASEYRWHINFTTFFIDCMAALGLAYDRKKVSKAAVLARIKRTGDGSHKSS
Kind of assay: Rat microsomal assay: conversion of labeled stearoyl CoA to oleoyl CoA by LC/MS/MS. The conditions noted are these: rat liver microsomes; 40 μM substrate (2× Km); mean of N=3; read-out: IC50, inhibition of SCD1 activity (conversion of stearoyl CoA to oleoyl CoA). The assay is classed as biochemical. As to the method: As described below, the assay measures the conversion of labeled stearoyl CoA to oleoyl CoA using LC/MS/MS.
In order to increase SCD1 activity in rat liver microsomes, Sprague Dawley rats are fasted for 40 hours. Following fasting diet is replaced with free fatty acid deficient chow ad libitum for 48 hours. Rats are then euthanized using CO2 asphyxiation and their livers are removed. Livers are weighed, minced and placed in homogenization buffer ([…], 50 mM Tris-HCl, pH 7.5, 5 mM EDTA, 1.5 mM GSH) on ice. Microsomes are isolated by homogenization with a polytron and several centrifugation steps. Following final centrifugation, the resulting pellet is resuspended in homogenization buffer and protein concentration is determined. Aliquots are stored at −80° C. until use.
Rat liver microsomes are allowed to react with stearoyl-coenzyme A labeled with D3 in the presence of the compound of Formula I to test the compound's ability to inhibit the conversion of stearoyl-coenzyme A to oleoyl coenzyme A. The reaction is terminated using acetonitrile. Free fatty acids are extracted by saponification of the samples with 2M KOH at 70° C. […] Samples are reconstituted in 9:1 Methanol:Water, with 2 ug/ml heptadecanoic acid added as an internal standard, and analyzed by LC/MS/MS. The ability to inhibit the conversion of stearoyl CoA to oleoyl CoA is expressed as an IC50.
In general terms: Liver microsomes are a subcellular fraction often used to study metabolism.

Assay [3] concerns male Syrian hamsters. Description: Hamster ear model: inhibition of sebum production. It counts as in vivo, Syrian hamster. An excerpt:
The hamster ear model is a validated animal model for testing whether compounds are capable of modulating sebaceous gland function and sebum secretion. Luderschmidt et al, Arch. Derm. Res. 258, 185-191 (1977). This model uses male Syrian hamsters, whose ears contain sebaceous glands. The compound of the invention was screened in this model according to the procedure outlined below. In these studies, the hamsters are topically dosed twice daily (BID) for 2 weeks, 5 days a week (Monday to Friday). Each dose consisted of 25 μl of vehicle control or formulated test article, which was evenly applied to ˜3 cm^2 of the ventral surfaces of both the right and left ears. At sacrifice, skin punches are taken for lipid analysis, histology and skin concentrations of the test compound.
Male Syrian hamsters aged 9 to 10 weeks were introduced into the laboratory environment and acclimated for 2 weeks prior to use in the study. Each group consisted of 5 animals and run in parallel with vehicle and positive controls. […]
Animals were dosed topically twice daily, five days a week, for 2 weeks. Each dose consisted of 25 μl of vehicle control or drug. The dose was applied to the ventral surfaces of both the right and left ears. All animals were sacrificed approximately 18-24 hours after the final dose. The right ears were collected from each animal and used for sebum analysis.
The ears were prepped for HPLC analysis in the following manner. One 8 mm distal biopsy punch was taken, just above the anatomical “V” mark in the ear to normalize the sample area. The punch was pulled apart. The ventral biopsy surface (the area where the topical dose was directly applied to the sebaceous glands) was retained for testing and the dorsal surface of the biopsy punch was discarded.
Tissue samples were blown with N2 gas and stored at −80° C. under nitrogen until HPLC analysis. In addition to ear samples, an aliquot of each drug and vehicle (at least 250 μl) was also stored at −80° C. for inclusion in the HPLC analysis.
HPLC analysis was carried out on an extract of the tissue sample. Tissue samples were contacted with 3 ml of solvent (a 4:1 admixture of 2,2,4-trimethylpentane and isopropyl alcohol). The mixture was shaken for 15 minutes and stored overnight at room temperature, protected from light. The next morning 1 milliliter of water was added to the sample and shaken for 15 minutes. The sample was then centrifuged at approximately 1500 rpm for 15 minutes. Two ml of the organic phase (top layer) was transferred to a glass vial, dried at 37° C., under nitrogen, for approximately 1 hour, and then lyophilized for approximately 48 hours. The samples were then removed from the lyophilizer and each vial was reconstituted with 600 μl of solvent A (trimethylpentane/tetrahydrofuran (99:1). The samples were then recapped and vortexed for 5 minutes.
200 μl of each sample was then transferred to a pre-labeled 200 μl HPLC vial with 200 μL glass inserts. The HPLC vials were placed in the autosampler tray for the Agilent 1100 series HPLC unit. The Agilent 1100 HPLC system consisted of a thermostated autosampler, a quaternary pump, a column heater, and an A/D interface module. All components were controlled by Agilent ChemStation software. A Waters Spherisorb S3W […] analytical column was maintained at 30° C. by the Agilent column heater unit. The HPLC autosampler was programmed to maintain the sample temperature at 20° C. throughout the run.
10 μL of each sample was injected in triplicate into the column. Two solvents were used for the solvent gradient. Solvent A was an admixture of trimethylpentane and tetrahydrofuran (99:1). Solvent B was ethyl acetate. The gradient utilized is described in the table below: […]
The Sedex 75 Evaporative Light Scattering Detector (ELSD) was operated at 45° C. with a gain of 5, and N2 pressure maintained at 3.1 bar. Analog signal obtained by the instrument was sent to the Agilent A/D interface module where it was converted to a digital output. […]

Assay [4] deals with T2, SCD1 enzyme in intact human cells (Homo sapiens, UniProt O00767).
T2 construct: The cells were received as pre-adipocytes and then differentiated for 5 days in a 384 well format; host or cells: cryopreserved human subcutaneous preadipocytes, differentiated to adipocytes
T2 sequence (O00767 1-359): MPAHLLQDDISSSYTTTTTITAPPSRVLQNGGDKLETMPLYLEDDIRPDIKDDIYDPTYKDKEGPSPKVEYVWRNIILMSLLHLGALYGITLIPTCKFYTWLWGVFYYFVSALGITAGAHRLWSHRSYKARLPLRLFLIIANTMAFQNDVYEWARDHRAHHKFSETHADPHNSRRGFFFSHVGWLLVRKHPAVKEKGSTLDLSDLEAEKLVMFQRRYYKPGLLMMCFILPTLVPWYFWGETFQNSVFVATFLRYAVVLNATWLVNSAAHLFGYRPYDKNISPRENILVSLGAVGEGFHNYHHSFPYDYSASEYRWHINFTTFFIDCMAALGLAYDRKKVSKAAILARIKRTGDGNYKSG
Description: Human adipocyte (AdipoRed) assay: production of triglycerides. The assay is classed as cell-based. To be noted: differentiated human subcutaneous adipocytes; 6 days compound treatment; mean of N=6; read-out: IC50, inhibition of the production of triglycerides. As to the method: The role of SCD1 is believed to be similar in adipocytes and sebocytes. The ability of the compound to inhibit the SCD1 enzyme in intact human cells was determined using the Human AdipoRed assay as described below. The cells were received as pre-adipocytes and then differentiated for 5 days in a 384 well format. The compound is added at various concentrations for 6 days. The production of triglycerides was then assessed by a unique dye which specifically binds to secreted triglycerides. The ability to inhibit the production of triglycerides is expressed as an IC50.
Cryopreserved subcutaneous preadipocytes (Cat #: PT-5001 Supplier: Cambrex Bio Science) were briefly thawed in 37 C and spin down at 1000 rpm for 5 minutes. Preadipocyte are resuspended in 30 ml of Growth Media (GM, Cat #: PT-8202 Cambrex Bio Science) and are diluted to final concentration of 75,000 cells/ml. 40 μl of Cells are then plated into wells of 384-Well BD Falcon polystyrene assay plate at the density of 3,000 cells (40 μl) per well. […]
After 5 days' differentiation, cells were treated with 2 μl of the compound from 96-well compound plate in duplicate by Biomek FX. […] The accumulation of intracellular triglycerides is then quantified by measuring fluoresce at 572 nm on a SpectraMax M5 microplate reader.

Where [5] appears, read: dose response experiment, formulated in propylene glycol:ethanol 30.70 (w/v), topical.
Where [6] appears, read: dosed at 1.5% in propylene glycol/transcutanol/ethanol 20/20/60, topical BID, 2 weeks, hamster ear.
The mark [7] stands for this setting: two week topical BID application, propylene glycol:ethanol 30.70.

Consider `CC1=C(/C=C/C(C)=C/C=C/C(C)=C\C(=O)O)C(C)(C)CCC1` [Isotretinoin], for which the “suppression of sebum production” value in assay [1] was “up to 90%”.
With `O=C(COc1ccc(CO)cc1)N1CC[C@H](Oc2ccccc2C(F)(F)F)C1` [compound of Formula I, (S)-2-(4-(hydroxymethyl)phenoxy)-1-(3-(2-(trifluoromethyl)phenoxy)pyrroli-din-1-yl)ethanone], the concentration for half-maximal inhibition (IC50) in assay [2] came out at 5.8 nM. In assay [3] (setting [5]), the “CE and WE production, dose response” value was “dose dependent decrease of both CE and WE production”; the “sebaceous gland size and number, histology” value is “Dose related changes in sebaceous gland size and number”. Moreover, in assay [3] (setting [6]), the “reduction in cholesterol ester (CE) compared to vehicle control” value amounted to 62%, the “reduction in wax ester (WE) compared to vehicle control” value is listed as 82% and the sebaceous gland size entry is recorded as “reduction in sebaceous gland size”. In assay [3] (setting [7]), the “ED50 based on WE reduction” value worked out at 0.3% and the “ED50 based on WE reduction, per area” value is 0.025 mg/cm^2. Besides, the IC50 in assay [4] worked out at 6.8 nM.
For the compound `CCOC(=O)/C=C(C)/C=C/C=C(C)/C=C/c1c(C)cc(OC)c(C)c1C` [etretinate], the “effect on sebum synthesis” value in assay [1] (Zouboulis 2004) is on record as “do not reduce sebum synthesis”.

As a reminder, the IC50 is the concentration at which inhibition is half-maximal.

(Values after patent US8980936B2, “Phenoxy-pyrrolidine derivative and its use and compositions” (Thesan Pharmaceuticals, Inc., priority 2007, dated 2015).)
